Article PMC5578959, “Selective LRRK2 kinase inhibition reduces phosphorylation of endogenous Rab10 and Rab12 in human peripheral mononuclear blood cells” (Scientific Reports, 2017)
Where “and” joins values, the source holds several entries; their conditions need not be identical. Identical values can stand only once.

Key:
Assay in all cases: KiNativ profiling in human PBMCs
Assay type in all cases: binding
[1] = tested on: T1, KHS1; settings: Lys1
T1 construct: purchased ActivX Technologies (KiNativ)
Summary of the method: (§1)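 Compound was applied to living PBMCs at 0.1 µM or 1 µM. Occupancy of kinases was then assessed by KiNativ.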

[2] = tested on: T2, smMLCK
T2 construct: purchased ActivX Technologies (KiNativ)
Summary of the method: as §1

[3] = tested on: T3, SNRK; settings: Lys2
T3 construct: purchased ActivX Technologies (KiNativ)
Summary of the method: as §1

[4] = tested on: T4, GCK
T4 construct: purchased ActivX Technologies (KiNativ)
Summary of the method: as §1

[5] = tested on: T5, PYK2; settings: Lys1
T5 construct: purchased ActivX Technologies (KiNativ)
Summary of the method: as §1

[6] = tested on: T6, IRAK1; settings: Lys2
T6 construct: purchased ActivX Technologies (KiNativ)
Summary of the method: as §1

[7] = tested on: T7, PIP5K3; settings: ATP
T7 construct: purchased ActivX Technologies (KiNativ)
Summary of the method: as §1

[8] = tested on: T8, NDR2
T8 construct: purchased ActivX Technologies (KiNativ)
Summary of the method: as §1

[9] = tested on: T9, MSK2 domain1; settings: Lys2
T9 construct: MSK2 domain1; purchased ActivX Technologies (KiNativ)
Summary of the method: as §1

[10] = tested on: T10, MAP3K6; settings: Lys2
T10 construct: purchased ActivX Technologies (KiNativ)
Summary of the method: as §1

[11] = tested on: T11, LRRK2; settings: Lys2
T11 construct: purchased ActivX Technologies (KiNativ)
Summary of the method: as §1

[12] = tested on: T12, GPRK6; settings: Lys2
T12 construct: purchased ActivX Technologies (KiNativ)
Summary of the method: as §1

[13] = tested on: T13, PIP4K2C; settings: ATP
T13 construct: purchased ActivX Technologies (KiNativ)
Summary of the method: as §1

[14] = tested on: T14, CDK7
T14 construct: purchased ActivX Technologies (KiNativ)
Summary of the method: as §1

[15] = tested on: T15, DGKA; settings: ATP
T15 construct: purchased ActivX Technologies (KiNativ)
Summary of the method: as §1

[16] = tested on: T16, GSK3A; settings: Lys2
T16 construct: purchased ActivX Technologies (KiNativ)
Summary of the method: as §1

[17] = tested on: T17, FES; settings: Lys1
T17 construct: purchased ActivX Technologies (KiNativ)
Summary of the method: as §1

[18] = tested on: T18, LATS2; settings: Lys2
T18 construct: purchased ActivX Technologies (KiNativ)
Summary of the method: as §1

[19] = tested on: T19, RSK1 domain1
T19 construct: RSK1 domain1; purchased ActivX Technologies (KiNativ)
Summary of the method: as §1

[20] = tested on: T20, NDR1
T20 construct: purchased ActivX Technologies (KiNativ)
Summary of the method: as §1

[21] = tested on: T21, CDK5
T21 construct: purchased ActivX Technologies (KiNativ)
Summary of the method: as §1

[22] = tested on: T22, OSR1; settings: Lys2
T22 construct: purchased ActivX Technologies (KiNativ)
Summary of the method: as §1

[23] = tested on: MST1,MST2; settings: Lys2
Summary of the method: as §1

[24] = tested on: T23, SLK
T23 construct: purchased ActivX Technologies (KiNativ)
Summary of the method: as §1

[25] = tested on: MAP3K2,MAP3K3; settings: Lys2
Summary of the method: as §1

[26] = tested on: T24, p38a
T24 construct: purchased ActivX Technologies (KiNativ)
Summary of the method: as §1

[27] = tested on: T25, STLK6; settings: Lys2
T25 construct: purchased ActivX Technologies (KiNativ)
Summary of the method: as §1

[28] = tested on: MAP3K15,MAP3K5,MAP3K6; settings: Lys1
Summary of the method: as §1

[29] = tested on: T26, RSK3 domain1; settings: Lys2
T26 construct: RSK3 domain1; purchased ActivX Technologies (KiNativ)
Summary of the method: as §1

[30] = tested on: T27, PFTAIRE1; settings: Lys1
T27 construct: purchased ActivX Technologies (KiNativ)
Summary of the method: as §1

[31] = tested on: T28, TBK1; settings: Lys1
T28 construct: purchased ActivX Technologies (KiNativ)
Summary of the method: as §1

[32] = tested on: T29, RSK2 domain1
T29 construct: RSK2 domain1; purchased ActivX Technologies (KiNativ)
Summary of the method: as §1

[33] = tested on: TAO1,TAO3; settings: Lys2
Summary of the method: as §1

[34] = tested on: T30, BRAF; settings: Lys2
T30 construct: purchased ActivX Technologies (KiNativ)
Summary of the method: as §1

Cc1cccc(-c2cc(Nc3ccn(C)n3)nc3[nH]cc(C#N)c23)c1 [Lu AF58786]
Inhibition ([1]; 0.1µM): 3.0% | Inhibition ([1]; 1µM): -2.5% | Inhibition ([2]; 0.1µM, Lys1): 1.6% | Inhibition ([2]; 0.1µM, Lys2): 3.0% | Inhibition ([2]; 1µM, Lys1): 18.7% | Inhibition ([2]; 1µM, Lys2): -2.1% | Inhibition ([3]; 0.1µM): 22.5% | Inhibition ([3]; 1µM): 15.1% | Inhibition ([4]; 0.1µM, Lys1): 14.1% | Inhibition ([4]; 0.1µM, Lys2): 16.9% | Inhibition ([4]; 1µM, Lys1): 5.5% | Inhibition ([4]; 1µM, Lys2): -3.1% | Inhibition ([5]; 0.1µM): -16.3% | Inhibition ([5]; 1µM): -2.7% | Inhibition ([6]; 0.1µM): 3.0% | Inhibition ([6]; 1µM): 1.7% | Inhibition ([7]; 0.1µM): -2.2% | Inhibition ([7]; 1µM): 4.2% | Inhibition ([8]; 0.1µM, Lys1): -14.6% | Inhibition ([8]; 0.1µM, Lys2): 10.7% | Inhibition ([8]; 1µM, Lys1): -18.5% | Inhibition ([8]; 1µM, Lys2): 1.3% | Inhibition ([9]; 0.1µM): 28.3% | Inhibition ([9]; 1µM): 19.0% | Inhibition ([10]; 0.1µM): 31.4% | Inhibition ([10]; 1µM): 4.4% | Inhibition ([11]; 0.1 µM): 83% and 83.4% | Inhibition ([11]; 1 µM): 93% and 93.4% | Inhibition ([12]; 0.1µM): -65.0% | Inhibition ([12]; 1µM): -34.1% | Inhibition ([13]; 0.1µM): 19.6% | Inhibition ([13]; 1µM): 31.1% | Inhibition ([14]; 0.1µM, Lys1): 3.7% | Inhibition ([14]; 0.1µM, Lys2): 9.8% | Inhibition ([14]; 1µM, Lys1): -0.256% | Inhibition ([14]; 1µM, Lys2): 18.0% | Inhibition ([15]; 0.1µM): 1.1% | Inhibition ([15]; 1µM): -1.9% | Inhibition ([16]; 0.1µM): 13.7% | Inhibition ([16]; 1µM): 27.3% | Inhibition ([17]; 0.1µM): 13.9% | Inhibition ([17]; 1µM): 9.3% | Inhibition ([18]; 0.1µM): 9.3% | Inhibition ([18]; 1µM): -1.5% | Inhibition ([19]; 0.1µM, Activation Loop): 8.7% | Inhibition ([19]; 0.1µM, Lys2): -0.654% | Inhibition ([19]; 1µM, Activation Loop): 18.4% | Inhibition ([19]; 1µM, Lys2): 12.8% | Inhibition ([20]; 0.1µM, Lys1): 0.33% | Inhibition ([20]; 0.1µM, Lys2): 16.5% | Inhibition ([20]; 1µM, Lys1): -11.0% | Inhibition ([20]; 1µM, Lys2): 0.751% | Inhibition ([21]; 0.1µM, Lys1): 15.8% | Inhibition ([21]; 0.1µM, Lys2): 2.3% | Inhibition ([21]; 1µM, Lys1): 17.6% | Inhibition ([21]; 1µM, Lys2): 2.5% | Inhibition ([22]; 0.1µM): 19.8% | Inhibition ([22]; 1µM): -4.1% | Inhibition ([23]; 0.1µM): 6.3% | Inhibition ([23]; 1µM): 4.8% | Inhibition ([24]; 0.1µM, Lys1): -13.3% | Inhibition ([24]; 0.1µM, Lys2): 8.0% | Inhibition ([24]; 1µM, Lys1): 25.5% | Inhibition ([24]; 1µM, Lys2): -7.2% | Inhibition ([25]; 0.1µM): 6.3% | Inhibition ([25]; 1µM): 0.325% | Inhibition ([26]; 0.1µM, Lys2): 0.7% | Inhibition ([26]; 0.1 µM, Other): -1.7% | Inhibition ([26]; 1µM, Lys2): -4.6% | Inhibition ([26]; 1 µM, Other): -7.7% | Inhibition ([27]; 0.1µM): -9.8% | Inhibition ([27]; 1µM): -1.6% | Inhibition ([28]; 0.1µM): 12.0% | Inhibition ([28]; 1µM): 11.6% | Inhibition ([29]; 0.1µM): 12.9% | Inhibition ([29]; 1µM): 26.9% | Inhibition ([30]; 0.1µM): 5.8% | Inhibition ([30]; 1µM): -10.2% | Inhibition ([31]; 0.1µM): 10.1% | Inhibition ([31]; 1µM): 26.3% | Inhibition ([32]; 0.1µM, ATP Loop): 26.3% | Inhibition ([32]; 0.1µM, Activation Loop): 16.6% | Inhibition ([32]; 0.1µM, Lys2): 1.6% | Inhibition ([32]; 1µM, ATP Loop): 13.9% | Inhibition ([32]; 1µM, Activation Loop): 32.7% | Inhibition ([32]; 1µM, Lys2): 27.1% | Inhibition ([33]; 0.1µM): 27.6% | Inhibition ([33]; 1µM): 15.9% | Inhibition ([34]; 0.1µM): 6.1% | Inhibition ([34]; 1µM): -13.8%
